Experiments:
[1] = test system: TC-1 tumors; assay: Therapeutic vaccination in the established TC-1 tumor model; format: in vivo, C57BL/6 mice; settings: single subcutaneous vaccination day 6 post-tumor challenge, E7 protein 50 μg plus adjuvant 25 μg/agent; 90 days observation
Source text: (§1) C57BL/6 mice were challenged subcutaneously with 1×10^5 live TC-1 cells into the right flank.

[2] = test system: intratumoral CD8^+ T cells and CD4^+Foxp3^+ Treg cells in TC-1 tumor; assay: Intratumoral CD8+ T cells and CD4+Foxp3+ Treg cells by confocal microscopy; format: in vivo, mice; settings: one week post-vaccination
Description: (§2) Spleens and/or tumor draining lymph nodes (TdLNs) were processed as described previously (7). For memory T cell typing, lymphocytes were stained with anti-CD8-APC-Cy7, anti-CD62L-FITC, and anti-CD44-APC antibodies. For intracellular cytokine staining, lymphocytes (1×10^6 cells/mL) were stimulated either with 10 μg/mL E749-57 peptide for 2 hrs followed by incubation with GolgiPlug (1 μl/mL, BD PharMingen) overnight or with phorbol 12-myristate 13-acetate (PMA) (5 ng/ml, Sigma) and ionomycin (500 ng/ml, Sigma) for 2 hrs followed by incubation with GolgiPlug (1 μl/ml) for an additional 4 hrs. Cells were first stained with anti-CD44-APC and anti-CD8-APC-Cy7, fixed with 4% paraformaldehyde, and then stained with anti-IFN-γ-PE-Cy7, anti-IL-2-Percp-Cy5.5, anti-TNF-PE, or isotype controls followed by acquisition and analysis as previously reported (12). Intratumoral CD8^+ T cells and CD4^+Foxp3^+ Treg cells were analyzed using confocal microscopy as described (12).
Mice bearing ˜3-4 mm TC-1 tumor were vaccinated subcutaneously with various vaccine formulations. One week post-vaccination, tumors were harvested and analyzed for the presence of intratumoral CD8^+ T cells and CD4^+FoxP3^+ Treg cells using confocal microscopy. […] (FIG. 3A, B).

[3] = test system: E749-57 peptide-specific CD8^+ T cells; assay: Primary CD8+ T cell intracellular IFN-γ response of tumor draining lymphocytes; format: in vivo, mice; settings: one week post-vaccination
Description: as §2

[4] = test system: TC-1 target cells; assay: Cytotoxicity assay; format: cell-based, mice; settings: splenocytes one week post-vaccination, 5 days E749-57 + IL-2, effectors against TC-1 for 4 hrs
Description: Mice with ˜3-4 mm TC-1 tumors in diameter were vaccinated subcutaneously with vaccine formulations containing E7 protein (50 μg) alone or with SA-4-1BBL (25 μg), MPL (25 μg), or the combination of both agents (25 μg/agent). One week post-vaccination, splenocytes were cultured with 10 μg of E749-57 peptide/mL in complete MLR medium supplemented with 50 IU/mL of IL-2. Viable lymphocytes were harvested 5 days later using a Ficoll gradient and used as effectors at various ratios against TC-1 target cells for 4 hrs as described (41).

[5] = test system: TC-1 tumors; assay: TC-1 tumor model with antibody depletion of CD8+ or CD4+ T cells before vaccination; format: in vivo, mice; settings: E7 + MPL
Description: as §1
To test if a high CD8^+ Teff/Treg cell ratio can serve as a predictor of vaccine therapeutic efficacy, we used antibodies against CD8 and CD4 molecules to deplete CD8^+ Teff and Treg cells, respectively. Mice with established TC-1 tumors were treated with depleting antibodies one day before vaccination with E7 protein admixed with SA-4-1BBL/MPL or MPL as monotherapy.

[6] = test system: 3LL pulmonary metastatic tumors; assay: 3LL pulmonary metastasis model, vaccination with survivin; format: in vivo, mice; settings: single subcutaneous vaccination day 6 with SVN 50 μg plus adjuvant; lungs day 27
Description: For the pulmonary tumor model, 2×10^5 live 3LL cells were injected intravenously into the tail vein of mice. Mice were vaccinated subcutaneously either once on day 6 or twice on days 6 and 13 post-tumor challenge with various vaccine formulations containing survivin (SVN) protein (50 μg) alone as control or with SA-4-1BBL (25 μg), MPL (25 gig), or the combination of both agents (25 μg/agent). Mice were euthanized 27 days post-tumor challenge for analysis of lung tumor burden as described (12, 18).

## 3-O-desacyl-4′-monophosphoryl lipid A [MPL]
[1]
  eradication of established TC-1 tumors, mice tumor-free: 50%
[2]; TC-1 tumor
  intratumoral Teff/Treg cell ratio: no effect
  number of intratumoral CD8+ T cells infiltration: moderate effect
[2]; ~3-4 mm TC-1 tumor, versus PBS controls or E7 protein alone
  number of intratumoral Treg cells: did not have detectable effect
[3]
  E7 TAA-specific CD8+ T cell IFN-γ response (primary): failed to do so
[4]
  TC-1 killing response: failed to do so
[5]; depletion of CD4+ T cells including Treg cells one day before vaccination
  therapeutic efficacy: 100%
[5]; without depletion
  therapeutic efficacy: 50%
[6]
  control of tumor growth (lung weight and presence of tumor nodules): statistically significant (P<0.05) effect in controlling tumor growth
